Patent US7179941B2, “Carbonylamino-substituted acyl phenyl urea derivatives, process for their preparation and their use” (Sanofi-Aventis Deutschland GmbH, priority 2003, dated 2007)

Target: T1, human glycogen phosphorylase a (Homo sapiens, UniProt P06737)
T1 sequence (P06737 1-847): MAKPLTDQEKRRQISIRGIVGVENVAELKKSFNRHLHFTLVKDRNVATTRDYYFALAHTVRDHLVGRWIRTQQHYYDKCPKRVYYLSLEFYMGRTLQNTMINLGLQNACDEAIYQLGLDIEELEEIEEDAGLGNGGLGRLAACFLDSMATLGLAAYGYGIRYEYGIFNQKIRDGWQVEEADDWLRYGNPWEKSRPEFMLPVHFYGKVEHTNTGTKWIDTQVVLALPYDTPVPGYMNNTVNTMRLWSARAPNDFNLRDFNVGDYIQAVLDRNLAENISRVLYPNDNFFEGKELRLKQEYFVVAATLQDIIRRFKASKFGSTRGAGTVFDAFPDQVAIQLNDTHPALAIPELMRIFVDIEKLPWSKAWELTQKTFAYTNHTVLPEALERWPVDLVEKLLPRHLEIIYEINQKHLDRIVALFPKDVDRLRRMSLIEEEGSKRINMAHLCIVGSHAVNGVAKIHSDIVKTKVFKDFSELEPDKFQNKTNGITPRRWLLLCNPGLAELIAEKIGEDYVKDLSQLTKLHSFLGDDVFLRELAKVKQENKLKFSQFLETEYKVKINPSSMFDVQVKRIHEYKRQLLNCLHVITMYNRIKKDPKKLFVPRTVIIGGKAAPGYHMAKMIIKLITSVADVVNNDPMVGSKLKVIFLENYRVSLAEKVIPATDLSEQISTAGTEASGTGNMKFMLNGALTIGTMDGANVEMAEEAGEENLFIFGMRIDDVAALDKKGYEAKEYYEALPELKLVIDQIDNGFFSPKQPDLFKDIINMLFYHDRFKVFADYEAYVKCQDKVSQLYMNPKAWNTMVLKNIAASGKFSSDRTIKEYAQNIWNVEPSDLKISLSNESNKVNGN
Assay: Glycogen phosphorylase a activity test
Type: biochemical
Conditions: 10 μM test substance; GPa measured in reverse direction (glycogen synthesis from glucose 1-phosphate)
Protocol: Glycogen Phophorylase a Activity Test
The effect of compounds on the activity of the active form of glycogen phosphorylase (GPa) was measured in the reverse direction by monitoring the synthesis of glycogen from glucose 1-phosphate by determining the release of inorganic phosphate. All reactions were carried out as duplicate determinations in 96-well microtiter plates (half area plates, Costar No. 3696), and the change in absorption as a consequence of the formation of the reaction product was measured at the wavelength specified below in a Multiskan Ascent Elisa Reader (Lab Systems, Finland).
In order to measure the GPa enzyme activity in the reverse direction, the conversion of glucose 1-phosphate to glycogen and inorganic phosphate was measured by the general method of Engers et al. (Engers HD, Shechosky S, Madsen NB, Can J Biochem 1970 July;48(7):746–754) with the following modifications: human glycogen phosphorylase a (for example containing 0.76 mg of protein/ml (Aventis Pharma Deutschland GmbH), dissolved in buffer solution E (25 mM P-glycerophosphate, pH 7.0, 1 mM EDTA and 1 mM dithiotreitol) was diluted to a concentration of 10 μg of protein/ml with buffer T (50 mM Hepes, pH 7.0, 100 mM KCl, 2.5 mM EDTA, 2.5 mM MgCl2.6H2O) and addition of 5 mg/ml of glycogen. Test substances were prepared as a 10 mM solution in DMSO and diluted to 50 μM with buffer solution T. To 10 μl of this solution were added 10 μl of 37.5 mM glucose dissolved in buffer solution T and 5 mg/ml of glycogen, and also 10 μl of a solution of human glycogen phosphorylase a (10 μg of protein/ml) and 20 μl of 2.5 mM glucose 1-phosphate. The base value of the activity of glycogen phosphorylase a in the absence of test substance was determined by adding 10 μl of buffer solution T (0.1% DMSO). The mixture was incubated at room temperature for 40 minutes and the released inorganic phosphate was determined by means of the general method of Drueckes et al. (Drueckes P, Schinzel R, Palm D, Anal Biochem 1995 Sep. 1;230(1):173–177) with the following modifications: 50 μl of a stop solution of 7.3 mM of ammonium molybdate, 10.9 mM of zinc acetate, 3.6% of ascorbic acid, 0.9% of SDS are added to 50 μl of the enzyme mixture. After 60 minutes of incubation at 45° C., the absorption was measured at 820 nm. To determine the background absorption, the stop solution was added immediately after the addition of the glucose 1-phosphate solution in a separate reaction.

Row | SMILES | % Inhibition at 10 μM [%] | inhibition at 10 µM [%]
1 | COC(=O)C(=O)Nc1ccc(OC)c(NC(=O)NC(=O)c2cc(F)c(F)cc2Cl)c1 [Example 2] | 99 | –
2 | COCC(=O)Nc1ccc(OC)c(NC(=O)NC(=O)c2cc(F)c(F)cc2Cl)c1 [Example 27] | 98 | –
3 | COc1ccc(NC(=O)C2CCC2)cc1NC(=O)NC(=O)c1cc(F)c(F)cc1Cl [Example 44] | 101 | –
4 | COc1cc(C(=O)O)c(NC(=O)CCC(=O)O)cc1NC(=O)NC(=O)c1cc(F)c(F)cc1Cl [Example 26] | 97 | –
5 | COc1ccc(NC(=O)COC(C)=O)cc1NC(=O)NC(=O)c1cc(F)c(F)cc1Cl [Example 49] | 99 | –
6 | CCCCC(=O)Nc1ccc(OC)c(NC(=O)NC(=O)c2cc(F)c(F)cc2Cl)c1 [Example 47] | 105 | –
7 | COc1cc(C(=O)O)c(NC(=O)C(=O)O)cc1NC(=O)NC(=O)c1cc(F)c(F)cc1Cl [Example 25] | 95 | –
8 | COc1ccc(NC(=O)CC(=O)O)cc1NC(=O)NC(=O)c1cc(F)c(F)cc1Cl [Example 6] | 100 | –
9 | COc1ccc(NC(=O)c2ccco2)cc1NC(=O)NC(=O)c1cc(F)c(F)cc1Cl [Example 32] | 102 | –
10 | CCOC(=O)c1cc(OC)c(NC(=O)NC(=O)c2cc(F)c(F)cc2Cl)cc1NC(C)=O [Example 20] | 95 | –
11 | COC(=O)C(=O)Nc1cc(NC(=O)NC(=O)c2cc(F)c(F)cc2Cl)c(OC)cc1C [Example 15] | 101 | –
12 | COC(=O)CC(=O)Nc1ccc(OC)c(NC(=O)NC(=O)c2cc(F)c(F)cc2Cl)c1 [Example 3] | 104 | –
13 | COc1ccc(NC(=O)CCC(N)=O)cc1NC(=O)NC(=O)c1cc(F)c(F)cc1Cl [Example 8] | 100 | –
14 | COc1ccc(NC(=O)C2CC2)cc1NC(=O)NC(=O)c1cc(F)c(F)cc1Cl [Example 31] | 98 | –
15 | C=CCCC(=O)Nc1ccc(OC)c(NC(=O)NC(=O)c2cc(F)c(F)cc2Cl)c1 [Example 46] | 102 | –
16 | COc1ccc(NC(=O)Cc2ccccc2)cc1NC(=O)NC(=O)c1cc(F)c(F)cc1Cl [Example 37] | 101 | –

Row | SMILES | % Inhibition at 10 μM [%] | inhibition at 10 µM [%]
17 | COc1cc(C)c(NC(=O)CC(=O)O)cc1NC(=O)NC(=O)c1cc(F)c(F)cc1Cl [Example 18] | 99 | –
18 | COC(=O)CCC(=O)Nc1ccc(OC)c(NC(=O)NC(=O)c2cc(F)c(F)cc2Cl)c1 [Example 4] | 97 | –
19 | COC(=O)CC(=O)Nc1cc(NC(=O)NC(=O)c2cc(F)c(F)cc2Cl)c(OC)cc1C [Example 16] | 95 | –
20 | COc1ccc(NC(=O)c2ccccc2F)cc1NC(=O)NC(=O)c1cc(F)c(F)cc1Cl [Example 36] | 101 | –
21 | COc1ccc(NC(=O)c2ccccc2OC(F)(F)F)cc1NC(=O)NC(=O)c1cc(F)c(F)cc1Cl [Example 51] | 92 | –
22 | COc1cc(C)c(NC(C)=O)cc1NC(=O)NC(=O)c1cc(F)c(F)cc1Cl [Example 14] | 91 | –
23 | COc1ccc(NC(=O)C(=O)c2c[nH]c3ccccc23)cc1NC(=O)NC(=O)c1cc(F)c(F)cc1Cl [Example 42] | 83 | –
24 | COc1cc(C)c(NC(=O)NC(=O)c2cc(F)c(F)cc2Cl)cc1NC(=O)CCC(=O)O [Example 12] | 90 | –
25 | COc1cc(C)c(NC(=O)C(=O)O)cc1NC(=O)NC(=O)c1cc(F)c(F)cc1Cl [Example 17] | 100 | –
26 | COc1ccc(NC(=O)C(=O)O)cc1NC(=O)NC(=O)c1cc(F)c(F)cc1Cl [Example 5] | 99 | –
27 | COc1cc(C(=O)O)c(NC(C)=O)cc1NC(=O)NC(=O)c1cc(F)c(F)cc1Cl [Example 19] | 97 | –
28 | CCC(=O)Nc1ccc(OC)c(NC(=O)NC(=O)c2cc(F)c(F)cc2Cl)c1 [Example 30] | 101 | –
29 | COc1ccc(NC(=O)c2cccnc2)cc1NC(=O)NC(=O)c1cc(F)c(F)cc1Cl [Example 28] | 89 | –
30 | COc1ccc(NC(=O)c2cccc(F)c2)cc1NC(=O)NC(=O)c1cc(F)c(F)cc1Cl [Example 45] | 97 | –
31 | COc1cccc(CC(=O)Nc2ccc(OC)c(NC(=O)NC(=O)c3cc(F)c(F)cc3Cl)c2)c1 [Example 41] | 104 | –

Further lines, results first:

Row | % Inhibition at 10 μM [%] | inhibition at 10 µM [%] | SMILES
32 | 99 | – | C#CCCC(=O)Nc1ccc(OC)c(NC(=O)NC(=O)c2cc(F)c(F)cc2Cl)c1 [Example 57]
33 | 101 | – | O=C(NC(=O)c1cc(F)c(F)cc1Cl)Nc1cc(NC(=O)C(=O)O)ccc1OC(F)(F)F [Example 68]
34 | 99 | – | O=C(O)CCC(=O)Nc1ccc(OC(F)(F)F)c(NC(=O)NC(=O)c2cc(F)c(F)cc2Cl)c1 [Example 70]
35 | 95 | – | O=C(O)CC(=O)Nc1ccc(Cl)c(NC(=O)NC(=O)c2cc(F)c(F)cc2Cl)c1 [Example 86]
36 | 101 | – | COc1ccc(NC(=O)CN)cc1NC(=O)NC(=O)c1cc(F)c(F)cc1Cl [Example 52]
37 | 103 | – | CCOCC(=O)Nc1ccc(OC)c(NC(=O)NC(=O)c2cc(F)c(F)cc2Cl)c1 [Example 59]
38 | 100 | – | CNCC(=O)Nc1ccc(OC)c(NC(=O)NC(=O)c2cc(F)c(F)cc2Cl)c1 [Example 54]
39 | 98 | – | CC(=O)Nc1ccc(Cl)c(NC(=O)NC(=O)c2cc(F)c(F)cc2Cl)c1 [Example 85]
40 | 99 | – | CN(C)c1ccc(NC(=O)CC(=O)O)cc1NC(=O)NC(=O)c1cc(F)c(F)cc1Cl [Example 76]
41 | – | 97 | CC(=O)Nc1ccc(N2CCCC2)c(NC(=O)NC(=O)c2cc(F)c(F)cc2Cl)c1 [Example 73, N-{3-[3-(2-Chloro-4,5-difluorobenzoyl)ureido]-4-pyrrolidin-1-ylphenyl}acetamide]
42 | 96 | – | CCN(CC)c1ccc(NC(C)=O)cc1NC(=O)NC(=O)c1cc(F)c(F)cc1Cl [Example 72]
43 | 100 | – | COc1ccc(NC(=O)CCCN)cc1NC(=O)NC(=O)c1cc(F)c(F)cc1Cl [Example 53]
44 | 101 | – | COC(=O)CCC(=O)Nc1ccc(OC(F)(F)F)c(NC(=O)NC(=O)c2cc(F)c(F)cc2Cl)c1 [Example 67]
45 | 99 | – | COc1ccc(NC(=O)CN(C)C)cc1NC(=O)NC(=O)c1cc(F)c(F)cc1Cl [Example 58]
46 | 100 | – | COc1ccc(NC(=O)C(F)F)cc1NC(=O)NC(=O)c1cc(F)c(F)cc1Cl [Example 61]
47 | 103 | – | COc1ccc(NC(=O)CCC(=O)O)cc1NC(=O)NC(=O)c1ccc(Cl)cc1Cl [Example 83]
